21 compounds from US6569878B1, “Substituted 4-amino-thiazol-2-yl compounds as cyclin-dependent kinase inhibitors” (Agouron Pharmaceuticals Inc., priority 1997, dated 2003) can be followed below.

Experiment [1] concerns U2-OS. The experiment can be described thus: Inhibition of cell growth, MTT assay, U2-OS. The following applies: for IC50 / IC90: Homo sapiens, U2OS; for % inhibition of growth in parentheses after >25: concentration not given. The experiment is classed as cell-based. As for the experimental part:
(§1) The water-insoluble purple formazan product was then detected spectrophotometrically. […] Plates were incubated for four hours before addition of inhibitor compounds. Different concentrations of inhibitor compounds were added in 0.5% (v/v) dimethylsulfoxide (15 μL/well), and cells were incubated at 37° C. (5% CO2) for four to six days (depending on cell type). At the end of the incubation, MTT was added to a final concentration of 0.2 mg/mL, and cells were incubated for 4 hours more at 37° C. After centrifugation of the plates and removal of medium, the absorbance of the formazan (solubilized in dimethylsulfoxide) was measured at 540 nm.
Background: Tetrazolium dyes change colour on reduction, which living cells bring about.

Experiment [2] addresses T1, complex of human CDK4 and cyclin D3 (Homo sapiens, UniProt P11802).
T1 construct: made in house; host or cells: insect cells, co-infected with baculovirus
The experiment can be described thus: Inhibition of CDK4/cyclin D retinoblastoma kinase activity (D-type cyclin is D3). The experiment is classed as biochemical. The following applies: superscript a: D-type cyclin is D3; apparent Ki; read-out: Ki CDK 4/D. As for the experimental part: Cyclin-dependent kinase activity was measured by quantifying the enzyme-catalyzed, time-dependent incorporation of radioactive phosphate from [^32P]ATP or [^33P]ATP into a protein substrate. […] Reactions were initiated with enzyme, incubated at 30° C., and terminated after 20 minutes by the addition of ethylenediaminetetraacetic acid (EDTA) to 250 mM. […] Radioactivity was quantified by exposing the dried membranes to a phosphorimager.
(§2) Apparent Ki values were measured by assaying enzyme activity in the presence of different inhibitor compound concentrations and subtracting the background radioactivity measured in the absence of enzyme. The kinetic parameters (kcat, Km for ATP) were measured for each enzyme under the usual assay conditions by determining the dependence of initial rates on ATP concentration. Inhibition data were fit to an equation for competitive inhibition using Kaleidagraph (Synergy Software), or were fit to an equation for competitive tight-binding inhibition using the software KineTic (BioKin, Ltd.).
Phosphorylated Rb substrate was captured by microfiltration on a nitrocellulose membrane and quantified using a phosphorimager as described above. For measurement of tight-binding inhibitors, the enzyme complex concentration was lowered to 5 nM, and the assay duration was extended to 60 minutes, during which the time-dependence of product formation was linear.

In experiment [3] the test system is HCT116. Nature of the experiment: Inhibition of cell growth, MTT assay, HCT116. The experiment is classed as cell-based, human. The settings on record: Homo sapiens, HCT-116. As to the method: as §1
Experiment [4] deals with T2, CDK2/cyclin A (Homo sapiens, UniProt P24941).
T2 construct: made in house; host or cells: CDK2: insect cells (baculovirus); cyclin A: E. coli, then limited proteolysis
The experiment can be described thus: Inhibition of CDK2/cyclin A retinoblastoma kinase activity. The settings on record: read-out: Ki CDK 2/A. The experiment is classed as biochemical. As to the method: Cyclin-dependent kinase activity was measured by quantifying the enzyme-catalyzed, time-dependent incorporation of radioactive phosphate from [^32P]ATP or [^33P]ATP into a protein substrate. Unless noted otherwise, assays were performed in 96-well plates in a total volume of 50 μL, in the presence of 10 mM HEPES (N-[2-hydroxyethyl]piperazine-N′-[2-ethanesulfonic acid]) (pH 7.4), 10 mM MgCl2, 25 μM adenosine triphosphate (ATP), 1 mg/mL ovalbumin, 5 μg/mL leupeptin, 1 mM dithiothreitol, 10 mM β-glycerophosphate, 0.1 mM sodium vanadate, 1 mM sodium fluoride, 2.5 mM ethylene glycol-bis(β-aminoethyl ether)-N,N,N′N′-tetraacetic acid (EGTA), 2% (v/v) dimethylsulfoxide, and 0.03-0.4 μCi [^32/33P]ATP per reaction. Reactions were initiated with enzyme, incubated at 30° C., and terminated after 20 minutes by the addition of ethylenediaminetetraacetic acid (EDTA) to 250 mM. The phosphorylated substrate was then captured on a nitrocellulose or phosphocellulose membrane using a 96-well filtration manifold, and unincorporated radioactivity was removed by repeated washing with 0.85% phosphoric acid. Radioactivity was quantified by exposing the dried membranes to a phosphorimager.
as §2
CDK2 was purified using published methodology (Rosenblatt et al., “Purification and Crystallization of Human Cyclin-dependent Kinase 2,” J. Mol. Biol., vol. 230, 1993, pp. 1317-1319) from insect cells that had been infected with a baculovirus expression vector. […] Purified, proteolyzed cyclin A was included in the assay at a three- to five-fold molar excess to CDK2. Alternatively, a complex of CDK2 and proteolyzed cyclin A was prepared and purified by gel filtration. The substrate for this assay was the same Rb substrate fragment used for the CDK4 assays, and the methodology of the CDK2/cyclin A and the CDK4/cyclin D3 assays was essentially the same, except that CDK2 was present at 150 nM or 5 nM. Ki values were measured as described above.

Experiment [5] concerns Saos-2. The experiment can be described thus: Inhibition of cell growth, MTT assay, Saos-2. The settings on record: Homo sapiens; Saos-2, MTT assay. The experiment is classed as cell-based. As for the experimental part:
as §1

Where two headings read alike, the source gives them in different places. A value given as a limit tells only on which side of the number the result lay.

T1 sequence (P11802 whole entry): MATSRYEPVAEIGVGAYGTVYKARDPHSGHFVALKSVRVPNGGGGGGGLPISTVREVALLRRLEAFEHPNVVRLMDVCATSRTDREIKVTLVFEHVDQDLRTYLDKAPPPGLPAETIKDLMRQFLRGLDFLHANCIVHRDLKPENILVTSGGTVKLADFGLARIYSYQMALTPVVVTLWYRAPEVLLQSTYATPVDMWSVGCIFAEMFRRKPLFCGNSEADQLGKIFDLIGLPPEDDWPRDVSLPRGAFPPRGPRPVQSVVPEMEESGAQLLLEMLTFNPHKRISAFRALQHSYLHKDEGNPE
T1 sequence (P30281 whole entry partner): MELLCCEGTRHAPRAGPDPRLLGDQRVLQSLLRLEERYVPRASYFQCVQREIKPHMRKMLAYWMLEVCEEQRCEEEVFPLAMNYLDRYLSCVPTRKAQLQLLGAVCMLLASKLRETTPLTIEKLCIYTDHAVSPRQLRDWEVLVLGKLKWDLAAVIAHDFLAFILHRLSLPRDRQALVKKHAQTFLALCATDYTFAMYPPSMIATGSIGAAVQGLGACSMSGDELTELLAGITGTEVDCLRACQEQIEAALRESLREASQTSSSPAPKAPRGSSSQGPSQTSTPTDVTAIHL

Take `COc1ccc(Nc2nc(N)c(C(=O)c3ccccc3I)s2)cc1` [C(12), [4-Amino-2-(4-methoxy-phenylamino)-thiazol-5-yl]-(2-iodo-phenyl)-methanone]: the 50% inhibitory concentration (IC50) in experiment [1] is 1900 nM; in experiment [3], 2000 nM; in experiment [5], 2100 nM. Besides, the 90% effect concentration (IC90) amounted to 6000 nM in experiment [1], 5000 nM in experiment [3] and 4800 nM in experiment [5]. Moreover, the Ki turned out to be 27 nM in experiment [2] and 0.67 µM in experiment [4].
Take `Cc1ccsc1C(=O)c1sc(Nc2ccc3nc[nH]c3c2)nc1N` [C(19), [4-Amino-2-(1H-benzoimidazol-6-ylamino)-thiazol-5-yl]-(3-methyl-thiophen-2-yl)-methanone]: the IC50 in experiment [1] came out at 15000 nM; in experiment [3], 9000 nM; in experiment [5], 7000 nM. The 90% effect concentration (IC90) was greater than 25000 nM in experiment [1], 23000 nM in experiment [3] and 18000 nM in experiment [5]. The “% inhibition of growth in parentheses after >25” value in experiment [1] was determined as 77%. Further, the Ki in experiment [2] came out at 15.8 nM; in experiment [4] it was 0.277 µM.
With `Cc1ccc(C(=O)c2sc(Nc3ccc4nc[nH]c4c3)nc2N)c(C)c1` [C(20), [4-Amino-2-(1H-benzoimidazol-6-ylamino)-thiazol-5-yl]-(2,4-dimethyl-phenyl)-methanone], the half-maximal inhibitory concentration (IC50) in experiment [1] is 6500 nM; in experiment [3], 6100 nM; in experiment [5], 4900 nM. In addition, the results for the IC90 in experiment [1], in experiment [3] and in experiment [5] were greater than 25000 nM, 25000 nM and 13000 nM, respectively. Besides, in experiment [1], the “% inhibition of growth in parentheses after >25” value is “(74%)”. Moreover, the values for the Ki in experiment [2] and in experiment [4] were 22 nM and 0.145 µM, respectively.
Take `Nc1nc(Nc2ccc(N3CCOCC3)cc2)sc1C(=O)c1c(Cl)ccc([N+](=O)[O-])c1Cl` [C(75), [4-Amino-2-(4-morpholin-4-yl-phenylamino)-thiazol-5-yl]-(2,6-dichloro-3-nitro-phenyl)-methanone]: the values for the Ki in experiment [2] and in experiment [4] were 23 nM and 1.08 µM, respectively.
As to `Cc1c(C(=O)c2sc(Nc3ccc(S(N)(=O)=O)cc3)nc2N)ncn1C` [C(76), 4-[4-Amino-5-(1,5-dimethyl-1H-imidazole-4-carbonyl)-thiazol-2-ylamino]-benzenesulfonamide], the Ki in experiment [2] worked out at 2000 nM; in experiment [4] it was 0.507 µM.
With `Cc1cc([N+](=O)[O-])sc1C(=O)c1sc(Nc2ccc3nc[nH]c3c2)nc1N` [C(78), [4-Amino-2-(1H-benzoimidazol-6-ylamino)-thiazol-5-yl]-(3-methyl-5-nitro-thiophen-2-yl)-methanone], the Ki in experiment [2] came out at 32 nM; in experiment [4], 0.083 µM.
For `Nc1nc(Nc2ccc3nc[nH]c3c2)sc1C(=O)c1c(F)cccc1F` [C(79), [4-Amino-2-(1H-benzoimidazol-6-ylamino)-thiazol-5-yl]-(2,6-difluoro-phenyl)-methanone], in that order: 54 nM and 0.162 µM.
For `Cc1cccc(-c2ccccc2)c1C(=O)c1sc(Nc2ccc(N3CCOCC3)cc2)nc1N` [C(83), [4-Amino-2-(4-morpholin-4-yl-phenylamino)-thiazol-5-yl]-(3-methyl-biphenyl-2-yl)-methanone], the results for the Ki in experiment [2] and in experiment [4] (μM) were 1800 nM and 32 µM, respectively.
As for `Cc1cccc(Br)c1C(=O)c1sc(Nc2ccc(N3CCOCC3)cc2)nc1N` [C(84), [4-Amino-2-(4-morpholin-4-yl-phenylamino)-thiazol-5-yl]-(2-bromo-6-methyl-phenyl)-methanone], the Ki came out at 53 nM in experiment [2] and 1.04 µM in experiment [4].
On to `Nc1nc(Nc2ccc3nc[nH]c3c2)sc1C(=O)c1c(Cl)ccc([N+](=O)[O-])c1Cl` [C(89), [4-Amino-2-(1H-benzoimidazol-6-ylamino)-thiazol-5-yl]-(2,6-dichloro-3-nitro-phenyl)-methanone], for which the Ki in experiment [2] turned out to be 55 nM; in experiment [4], 0.326 µM.
For `Cc1cc(C(=O)c2sc(Nc3ccc(N4CCN(C)CC4)cc3)nc2N)c(C)s1` [C(90), {4-Amino-2-[4-(4-methyl-piperazin-1-yl)-phenylamino]-thiazol-5-yl}-(2,5-dimethyl-thiophen-3-yl)-methanone], in that order: 27 nM and 0.771 µM.
The corresponding values for `Nc1nc(Nc2ccc(S(N)(=O)=O)cc2)sc1C(=O)c1cc(Cl)sc1Cl` [C(92), 4-[4-Amino-5-(2,5-dichloro-thiophene-3-carbonyl)-thiazol-2-ylamino]-benzenesulfonamide] are 63 nM and 0.0094 µM.
In the case of `Nc1nc(Nc2ccc3nc[nH]c3c2)sc1C(=O)c1cc(Cl)sc1Cl` [C(93), [4-Amino-2-(1H-benzoimidazol-6-ylamino)-thiazol-5-yl]-(2,5-dichloro-thiophen-3-yl)-methanone], the Ki came out at 285 nM in experiment [2] and 1.04 µM in experiment [4].
For `CN(CC(=O)OC(C)(C)C)c1ccc(Nc2nc(N)c(C(=O)c3c(F)cccc3F)s2)cc1` [C(103), tert-Butyl({4-[4-Amino-5-(2,6-difluoro-benzoyl)-thiazol-2-ylamino]-phenyl}-methyl-amino)-acetate], in that order: 110 nM and 0.595 µM.
The corresponding values for `Cc1ccsc1C(=O)c1sc(Nc2ccc(N3CCN(C(=O)OC(C)(C)C)CC3)cc2)nc1N` [C(104), 4-Amino-2-[4-(1-tert-butoxycarbonyl-piperazine-4-yl)-phenylamino]-thiazol-5-yl-(3-methyl-thiophen-2-yl)-methanone] are 190 nM and 0.73 µM.
The corresponding values for `CC(C)(C)OC(=O)N1CCN(c2ccc(Nc3nc(N)c(C(=O)c4c(Cl)cccc4Cl)s3)cc2)CC1` [C(105), 4-Amino-2-[4-(1-tert-butoxycarbonyl-piperazine-4-yl)-phenylamino]-thiazol-5-yl-(2,6-dichlorophenyl)-methanone] are 60 nM and 1.06 µM.
`CC(=O)Nc1ccc(Cl)c(C(=O)c2sc(Nc3ccc(N4CCN(C(=O)OC(C)(C)C)CC4)cc3)nc2N)c1Cl` [C(106)]: the values for the Ki in experiment [2] and in experiment [4] were 134 nM and 1.46 µM, respectively.
For `CC(=O)N1CCN(c2ccc(Nc3nc(N)c(C(=O)c4cc(C)sc4C)s3)cc2)CC1` [C(112), 2-[4-(1-Acetyl-piperazin-4-yl)-phenylamino]-4-amino-thiazol-5-yl-(2,5-dimethyl-thiophen-3-yl)-methanone], in that order: 23 nM and 0.408 µM.
For `Nc1ccc(Cl)c(C(=O)c2sc(Nc3ccc4nc[nH]c4c3)nc2N)c1Cl` [G, [4-Amino-2-(1H-benzoimidazol-6-ylamino)-thiazol-5-yl]-(3-amino-2,6-dichloro-phenyl)-methanone], in that order: 23 nM and 0.178 µM.
As to `Cc1ccc(C(=O)c2sc(Nc3ccccc3)nc2N)cc1` [I(12)], the results for the Ki in experiment [2] and in experiment [4] were 380 nM and 4.17 µM, respectively.
In the case of `Nc1nc(Nc2ccc(C(=O)O)cc2)sc1C(=O)c1c(Cl)cccc1Cl` [I(25)], the Ki in experiment [2] stood at 639 nM; in experiment [4], 0.28 µM.

A word on the IC50: it is the point on the concentration scale where inhibition reaches its midpoint. Higher therefore signals weaker potency in that assay. By IC90 is commonly meant the concentration needed for an effect of 90%. Lower therefore signals an effect from little substance.
